# In patent publication US10457709B2, “Antimicrobial peptides, their variants and uses” (priority 2015, dated 2019):
# Read-outs that look alike come from different tables or passages of the source. Square brackets hold non-standard residues; d marks the D form. Peptide text beside a SMILES is read from it.
# How the values were obtained:
# [1] = system: Acinetobacter johnsonii clinical strains; assay type: cell-based; details: Acinetobacter johnsonii clinical strain 1; microdilution, Muller Hinton broth-cation adjusted, 0.02% BSA, 0.2% acetic acid
# How it was run: (§1)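 Antifungal testing uses potato dextrose broth; antibacterial testing uses Mueller Hinton broth. Cell density is set to 5.0×10^5 cfu/ml and incubation runs 20–24 h at 37° C. MIC is the lowest concentration, within 0.125–128 μg/ml, at which no growth is visible.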
# [2] = system: Klebsiella pneumoniae clinical strains; assay type: cell-based; details: microdilution, Muller Hinton broth-cation adjusted, 0.02% BSA, 0.2% acetic acid
# How it was run: as §1
# [3] = system: Escherichia coli clinical strains; assay type: cell-based; details: microdilution, Muller Hinton broth-cation adjusted, 0.02% BSA, 0.2% acetic acid
# How it was run: as §1
# [4] = system: Pseudomonas aeruginosa clinical strains; assay type: cell-based; details: microdilution, Muller Hinton broth-cation adjusted, 0.02% BSA, 0.2% acetic acid
# How it was run: as §1
# [5] = system: all the bacteria and yeasts tested; assay type: cell-based
# How it was run: as §1
# [6] = system: C. parapsilosis clinical strains; experiment: MIC, clinical yeast strains; assay type: cell-based, Candida parapsilosis; set-up: unit: µg/ml
# How it was run: as §1
# [7] = system: Candida albicans clinical strains; experiment: MIC, clinical yeast strains; assay type: cell-based; set-up: unit: μg/ml
# How it was run: as §1
# [8] = system: C. quillermondiae clinical strains; experiment: MIC, clinical yeast strains; assay type: cell-based, Candida quillermondiae; set-up: unit: μg/ml; details: C. quillermondiae clinical yeast strain 1
# How it was run: as §1
# [9] = system: Staphylococcus aureus clinical strains; assay type: cell-based; set-up: Minimum inhibitory concentration: unit: μg/ml; details: microdilution, Muller Hinton broth-cation adjusted, 0.02% BSA, 0.2% acetic acid
# How it was run: as §1
# [10] = system: Acinetobacter baumannii clinical strains; assay type: cell-based; set-up: Minimum inhibitory concentration: unit: μg/ml; details: microdilution, Muller Hinton broth-cation adjusted, 0.02% BSA, 0.2% acetic acid
# How it was run: as §1
# [11] = system: Streptococcus pneumoniae clinical strains; assay type: cell-based; set-up: Minimum inhibitory concentration: unit: μg/ml; details: microdilution, Muller Hinton broth-cation adjusted, 0.02% BSA, 0.2% acetic acid
# How it was run: as §1
# [12] = system: Proteus mirabilis clinical strains; assay type: cell-based; set-up: Minimum inhibitory concentration: unit: μg/ml; details: for Minimum inhibitory concentration: microdilution, Muller Hinton broth-cation adjusted, 0.02% BSA, 0.2% acetic acid
# How it was run: as §1
# [13] = system: Serratia marcescens clinical strains; assay type: cell-based; set-up: Minimum inhibitory concentration: unit: μg/ml; details: for Minimum inhibitory concentration: microdilution, Muller Hinton broth-cation adjusted, 0.02% BSA, 0.2% acetic acid
# How it was run: as §1
# [14] = system: Enterobacter cloacae clinical strains; assay type: cell-based; set-up: Minimum inhibitory concentration: unit: μg/ml; details: microdilution, Muller Hinton broth-cation adjusted, 0.02% BSA, 0.2% acetic acid
# How it was run: as §1
# [15] = system: C. glabrata clinical strains; experiment: MIC, clinical yeast strains; assay type: cell-based, Candida glabrata; set-up: unit: µg/ml
# How it was run: as §1
smiles,measurement,setting,value
CC(C)C[C@@H](NC(=O)[C@H](N)CCCNC(=N)N)C(=O)N[C@H](CCCCN)C(=O)N[C@H](Cc1c[nH]c2ccccc12)C(=O)N[C@H](Cc1ccccc1)C(=O)N[C@H](CC(C)C)C(=O)N[C@H](CC(C)C)C(=O)N[C@H](Cc1ccccc1)C(=O)N[C@H](CCCNC(=N)N)C(=O)N[C@H](CCCCN)C(=O)N[C@H](CCCNC(=N)N)C(=O)O [Chain308D] (H-[dR][dL][dK][dW][dF][dL][dL][dF][dR][dK][dR]-OH),Minimum inhibitory concentration,[1],4
same,Minimum inhibitory concentration,[2]; Klebsiella pneumoniae clinical strain 1,4
same,Minimum inhibitory concentration,[2]; Klebsiella pneumoniae clinical strain 2,4
same,Minimum inhibitory concentration,[2]; Klebsiella pneumoniae clinical strain 3,4
same,Minimum inhibitory concentration,[2]; Klebsiella pneumoniae clinical strain 4,4
same,Minimum inhibitory concentration,[2]; Klebsiella pneumoniae clinical strain 5,4
same,Minimum inhibitory concentration,[3]; Escherichia coli clinical strain 1,1
same,Minimum inhibitory concentration,[3]; Escherichia coli clinical strain 2,0.5
same,Minimum inhibitory concentration,[3]; Escherichia coli clinical strain 3,1
same,Minimum inhibitory concentration,[3]; Escherichia coli clinical strain 4,1
same,Minimum inhibitory concentration,[3]; Escherichia coli clinical strain 5,1
same,Minimum inhibitory concentration,[4]; Pseudomonas aeruginosa clinical strain 1,8
same,Minimum inhibitory concentration,[4]; Pseudomonas aeruginosa clinical strain 2,8
same,Minimum inhibitory concentration,[4]; Pseudomonas aeruginosa clinical strain 3,4
same,Minimum inhibitory concentration,[4]; Pseudomonas aeruginosa clinical strain 4,4
same,Minimum inhibitory concentration,[4]; Pseudomonas aeruginosa clinical strain 5,4
same,MICs against all the bacteria and yeasts tested,[5],0.5 to 32 µg/mL
same,Minimum inhibitory concentration,[6]; C. parapsilosis clinical yeast strain 1,8
same,Minimum inhibitory concentration,[6]; C. parapsilosis clinical yeast strain 2,8
same,Minimum inhibitory concentration,[6]; C. parapsilosis clinical yeast strain 3,8
same,Minimum inhibitory concentration,[6]; C. parapsilosis clinical yeast strain 4,4
same,Minimum inhibitory concentration,[7]; Candida albicans clinical yeast strain 1,16
same,Minimum inhibitory concentration,[7]; Candida albicans clinical yeast strain 2,16
same,Minimum inhibitory concentration,[7]; Candida albicans clinical yeast strain 3,16
same,Minimum inhibitory concentration,[7]; Candida albicans clinical yeast strain 4,16
same,Minimum inhibitory concentration,[7]; Candida albicans clinical yeast strain 5,16
same,Minimum inhibitory concentration,[8],4
same,Minimum inhibitory concentration,[9]; Staphylococcus aureus clinical strain 1,1
same,Minimum inhibitory concentration,[9]; Staphylococcus aureus clinical strain 2,2
same,Minimum inhibitory concentration,[9]; Staphylococcus aureus clinical strain 3,1
same,Minimum inhibitory concentration,[9]; Staphylococcus aureus clinical strain 4,2
same,Minimum inhibitory concentration,[9]; Staphylococcus aureus clinical strain 5,2
same,Minimum inhibitory concentration,[10]; Acinetobacter baumannii clinical strain 1,4
same,Minimum inhibitory concentration,[10]; Acinetobacter baumannii clinical strain 2,4
same,Minimum inhibitory concentration,[10]; Acinetobacter baumannii clinical strain 3,4
same,Minimum inhibitory concentration,[10]; Acinetobacter baumannii clinical strain 4,2
same,Minimum inhibitory concentration,[10]; Acinetobacter baumannii clinical strain 5,2
same,Minimum inhibitory concentration,[11]; Streptococcus pneumoniae clinical strain 1,8
same,Minimum inhibitory concentration,[11]; Streptococcus pneumoniae clinical strain 2,4
same,Minimum inhibitory concentration,[11]; Streptococcus pneumoniae clinical strain 3,8
same,Minimum inhibitory concentration,[11]; Streptococcus pneumoniae clinical strain 4,2
same,Minimum inhibitory concentration,[11]; Streptococcus pneumoniae clinical strain 5,4
same,Minimum inhibitory concentration,[12]; Proteus mirabilis clinical strain 1,>128
same,Minimum inhibitory concentration,[12]; Proteus mirabilis clinical strain 2,32
same,Minimum inhibitory concentration,[12]; Proteus mirabilis clinical strain 3,128
same,Minimum inhibitory concentration,[12]; Proteus mirabilis clinical strain 4,>128
same,Minimum inhibitory concentration,[12]; Proteus mirabilis clinical strain 5,>128
same,MICs against Proteus mirabilis,[12]; clinical strains,64 to 128 µg/mL
same,Minimum inhibitory concentration,[13]; Serratia marcescens clinical strain 1,128
same,Minimum inhibitory concentration,[13]; Serratia marcescens clinical strain 2,128
same,Minimum inhibitory concentration,[13]; Serratia marcescens clinical strain 3,64
same,Minimum inhibitory concentration,[13]; Serratia marcescens clinical strain 4,>128
same,Minimum inhibitory concentration,[13]; Serratia marcescens clinical strain 5,128
same,MICs against Serratia marcescens,[13]; clinical strains,64 to 128 µg/mL
same,Minimum inhibitory concentration,[14]; Enterobacter cloacae clinical strain 1,2
same,Minimum inhibitory concentration,[14]; Enterobacter cloacae clinical strain 2,2
same,Minimum inhibitory concentration,[14]; Enterobacter cloacae clinical strain 3,2
same,Minimum inhibitory concentration,[14]; Enterobacter cloacae clinical strain 4,2
same,Minimum inhibitory concentration,[14]; Enterobacter cloacae clinical strain 5,2
same,Minimum inhibitory concentration,[15]; C. glabrata clinical yeast strain 1,16
same,Minimum inhibitory concentration,[15]; C. glabrata clinical yeast strain 2,16
same,Minimum inhibitory concentration,[15]; C. glabrata clinical yeast strain 3,16
same,Minimum inhibitory concentration,[15]; C. glabrata clinical yeast strain 4,16
